In a melting point compilation (Tetko et al.; mined from patent text by program, amines drawn as free bases though some values may be those of a salt):

`CCOC(=O)CN1C(=O)CN2CC(=O)NN=C21` gave a melting point of 188 to 193 °C. Work on `C=CCc1cccc2c(=O)cc(-c3ccc(F)cc3)oc12` yielded a melting point of 98 to 100 °C. For `Cc1c(OCCn2ccnc2)ccc2c1CC/C(=C\c1cccs1)C2=O`, the melting point was 182 to 184 °C. `COc1ccc(OC)c(OCCO)c1` gave a melting point of 50 to 52 °C. Compound `COC(=O)c1cccnc1C(=O)c1ccc(-n2ccnc2)cc1` has a melting point of 171 to 174 °C. In the case of `COC(=O)Cc1coc2cc(OCc3cc(-c4ccc(Cl)cc4)on3)ccc12`, the melting point was 136 to 137 °C. `COC(=O)C=C1CC(NC(=O)OC(C)(C)C)C1` (stereo unspecified) gave a melting point of 79 to 82 °C. With `O=C(O)c1cccc(NC(=O)c2sc3c([N+](=O)[O-])c(O)c(O)cc3c2Cl)c1` the melting point was 293 to 294 °C. In the case of `CC1(C(=O)c2c[nH]c3ncc(-c4cccc(N5CCN(C(=O)CC#N)CC5)c4)nc23)CCCCC1`, the melting point was 214 to 216 °C. Work on `CN(C)C=C1CN=C(c2ccccc2)c2cc(Cl)ccc2C1=O` yielded a melting point of 179 to 180 °C. `N#Cc1ccccc1C(Cc1ccc(C(F)(F)F)cc1)Cn1cncn1` (stereo unspecified) showed a melting point of 123 °C. `O=C(CC1=C(n2nc(-c3c(-c4ccccc4)nn4ccccc34)ccc2=O)CCCC1)N1CCN(C(c2ccccc2)(c2ccccc2)c2ccccc2)CC1` showed a melting point of 250 °C. For `O=c1[nH]c2cc(C(F)(F)F)ccc2n1CCCN1CCN(C(c2ccccc2)c2ccccc2)CC1`, the melting point was 153 °C. Work on `CS(=O)(=O)NCc1cccc(-c2csc(N=C(N)N)n2)n1` yielded a melting point of 196 °C. Compound `COc1ccc(C(=O)C2(O)CCCCC2C(=O)NCC(C)C)cc1` (stereo unspecified) has a melting point of 143 to 147 °C. In the case of `N#Cc1c(-c2ccccc2)sc2c1CNCC2c1ccccc1` (stereo unspecified), the melting point was 160 °C. For `O=C1Nc2ccccc2C1=c1[nH]c(=O)c(=Cc2ccc(OCc3ccccc3)cn2)[nH]c1=O`, the melting point was > 300 °C. With `Cc1c(C2=C(c3cn(C)c4ccccc34)C(=O)NC2=O)c2ccccc2n1C` the melting point was > 290 °C. For `O=CN1CCC(c2nn(-c3ccc(C(F)(F)F)cc3)c3ccccc23)CC1`, the melting point was 109 to 111 °C. Compound `COc1cc(OC)c2c(c1)N(C)C(c1cc(C)c(O)c(C)c1)N=C2` (stereo unspecified) has a melting point of 188 to 189 °C. `CCCCCC(CC(=O)Nc1cc(C(N)=O)ccc1C(C)(C)C)c1ccc(OCCOC)cc1OC` (stereo unspecified) gave a melting point of 134 to 135 °C. `COC(=O)c1ccc2ccc(C(C)=O)cc2c1` gave a melting point of 103 to 105 °C. In the case of `CCOCc1cc2ccc(OC)cc2oc1=O`, the melting point was 64 to 66 °C. In the case of `CCOc1ccccc1C1(Cl)C(=O)Nc2ccc(Cl)cc21` (stereo unspecified), the melting point was 198 °C. In the case of `O=C1CCC(N2Cc3cc(CNC(=O)c4ccc(Cl)cc4)ccc3C2=O)C(=O)N1` (stereo unspecified), the melting point was 278 to 280 °C. `CON=C(C)CN1C(=O)c2ccccc2C1=O` gave a melting point of 114 to 131 °C. In the case of `COc1cc(N)c(Cl)cc1C(=O)NCC1CCN(CCCS(=O)(=O)Cc2ccccc2)CC1`, the melting point was 166 to 168 °C. Work on `O=C(O)[C@@H](O)CNC(=O)C(F)(F)F` yielded a melting point of 142 to 143 °C. `C/C(=N\OC(=O)[C@@H]1CCCN(C(=O)OC(C)(C)C)C1)[C@H]1CC[C@H]2[C@@H]3CCC4=CC(=O)CC[C@]4(C)[C@H]3CC[C@]12C` gave a melting point of 79 to 81 °C. With `CCOC(=O)c1ccc2cc(N)ccn2c1=O` the melting point was > 250 °C. For `Cc1nc2cc(Nc3ncc4ccc(-c5cccc(S(=O)(=O)NC(C)(C)C)c5)n4n3)ccc2o1`, the melting point was 212 to 214 °C. `CCNC1CCN(c2c(F)cc3c(=O)c(C(=O)O)cn(C4CC4)c3c2C)CC1(C)C` (stereo unspecified) gave a melting point of 201 to 203 °C. `CCOC(=O)c1cnc2c([N+](=O)[O-])c(Cl)c(F)cc2c1O` showed a melting point of 226 to 228 °C. With `OC(CCl)(Cc1ccccc1Cl)c1ccc(Cl)cc1` (stereo unspecified) the melting point was 64 to 69 °C. With `CCOC(=O)C=Cc1cc([N+](=O)[O-])ccc1Cl` the melting point was 138 to 140 °C. In the case of `CC(=O)NCCn1nnnc1S`, the melting point was 138 to 140 °C. Work on `O=C(Nc1cccc2c1C(=O)c1c-2n[nH]c1C1CCN(C(=O)C2CCCNC2)CC1)NN1CCOCC1` (stereo unspecified) yielded a melting point of 169 to 170 °C. For `Cc1nc(N2CCc3ccsc3CC2)c([N+](=O)[O-])c(=O)[nH]1`, the melting point was > 200 °C. `CN(C)C(=O)C(=O)N1CN(C(=O)c2c(F)cccc2F)C(=O)N(c2ccc(Oc3ccc(C(F)(F)F)cc3Cl)cc2F)C1` showed a melting point of 98 to 100 °C. Compound `N#CC(C#N)(Cc1ccc(Cl)cc1)C1CCCCC1` has a melting point of 108 °C. For `CC(C)(C)OC(=O)NC[C@H]1CC[C@H](NC(=O)OCc2ccccc2)CC1`, the melting point was 130 to 131 °C. In the case of `Cc1ccccc1-n1cc(-c2ccccc2)c(CC(=O)O)n1`, the melting point was 177 °C. Compound `CC(=O)Oc1ccc2c(c1)CC1(C)Cc3ccccc3C1=CC2C` (stereo unspecified) has a melting point of 131 to 133 °C. `CS(=O)(=O)C(=C1CN(C(c2ccccc2)c2ccccc2)C1)c1ccc(O)cc1` showed a melting point of 211 °C. `c1ccc2[nH]c(-c3ccsc3)cc2c1` showed a melting point of 212 to 214 °C. `CCOC(=O)C(C)(C)n1c(=O)[nH]c2ccc(F)cc2c1=O` showed a melting point of 167 to 169 °C. Compound `CCOC(=O)c1cn(-c2cccc(OC)c2)cn1` has a melting point of 95 to 96 °C. Work on `CC(C)(C)OC(=O)C1=Cc2cc(Br)ccc2OC1` yielded a melting point of 96 to 97 °C. `COC(=O)CCCc1cc2cc(Cl)ccc2n1S(=O)(=O)c1cccc2nsnc12` showed a melting point of 123 to 126 °C. Work on `COC(=O)C1=C(C)NN=C(C(=O)OC(C)C)C1c1ccccc1Cl` (stereo unspecified) yielded a melting point of 166 °C. In the case of `CN(C)C=NS(=O)(=O)c1ccc(F)c(F)c1`, the melting point was 109 to 112 °C. For `CCCCCCS(=O)(=O)c1ccc(N)cc1`, the melting point was 95 to 97 °C. Work on `CNC(=O)c1ccccc1C(O)c1ccc(F)cc1` (stereo unspecified) yielded a melting point of 133 to 134 °C. Work on `CSc1ccc(-c2c(NN)nc(NN)nc2-c2ccccc2)cc1` yielded a melting point of 207 to 210 °C. Work on `O=C(Nc1ccc(-c2ncon2)cc1)OCC(Cl)(Cl)Cl` yielded a melting point of 108 to 110 °C. `COC(=O)CCn1cc(Cc2cccnc2)c2cc(CCC(=O)O)ccc21` gave a melting point of 108 to 110 °C. `O=C1CCOc2c1ccc(O)c2CCCc1ccccc1` gave a melting point of 110 to 112 °C. For `CCCCCCCCCCCCc1cc2cc(C(=O)OCC)ccc2[nH]1`, the melting point was 77 to 79 °C. Compound `CCOc1ccnc(F)c1` has a melting point of 35 to 36 °C. In the case of `CC(=O)Nc1ccc(Cl)cc1S(=O)(=O)CC#N`, the melting point was 174 °C. Compound `O=C(N=C1SCCN1Cc1ccc(Cl)nc1)c1ccccc1` has a melting point of 133 °C. For `Cc1ccc(Cc2cnc(Cl)nc2OC(C)C)cn1`, the melting point was 38 to 42 °C. With `CC(=Cc1ccc2ccccc2c1)c1ccc(C(=O)O)cc1` the melting point was 238 °C. `Nc1nc(Cl)nc(NC2CC2)n1` showed a melting point of 188 to 189 °C. `Fc1ccc2c(CCCN(c3ccncc3)c3csc4cccc(Cl)c34)noc2c1` showed a melting point of 135 to 136 °C. `CCOC(=O)/C=C/c1cc(OCc2cn(-c3ccc(C(F)(F)F)cn3)nc2C)nn1C` gave a melting point of 173 to 174 °C. In the case of `CC(C)C[C@H](NC(=O)[C@H](Cc1ccccc1)NC(=O)C1CCCC1)C(=O)O`, the melting point was 148 to 151 °C. `CCS(=O)(=O)CCC(=O)NNC(=O)N1Cc2ccccc2Oc2ccc([N+](=O)[O-])cc21` gave a melting point of 198 to 200 °C. Work on `CCCCOc1c(CNC(=O)OC(C)(C)C)n(CC(C)C)c(=O)c2ccc(-c3noc(C)n3)cc12` yielded a melting point of 152 °C. For `CCNC(=O)CN1C(=O)C(NC(=O)OCc2ccccc2)N=C(c2ccccc2)c2ccccc21` (stereo unspecified), the melting point was 149 °C. `COc1ccccc1-c1cnn2ccc(N3CCN(C(=O)OC(C)C)CC3)nc12` showed a melting point of 57 to 59 °C. Compound `C[Si](C)(C)C/C=C/[C@@H](Cc1ccccc1)C(=O)N1C(=O)OC[C@H]1Cc1ccccc1` has a melting point of 132 to 135 °C. In the case of `Cn1cc(CS(C)(=O)=O)c(=O)c2ccccc21`, the melting point was 200 to 201 °C. Compound `Cn1nc(N)c2sc3ccccc3c21` has a melting point of 177 to 178 °C. In the case of `CCCC(NS(=O)(=O)c1ccc(Cl)cc1)C(=S)Nc1ccc(CCC(=O)OC)cc1` (racemic), the melting point was 116 to 118 °C. `COc1cc(Nc2c(C#N)cnc3cc(C#CCCN(C)C)c(OC)cc23)c(Cl)cc1Cl` gave a melting point of 177 to 179 °C. `Cc1c(Cc2ccc([N+](=O)[O-])cc2)c(=O)oc2cc(OCC#N)cc(OCC#N)c12` showed a melting point of 178 to 185 °C. Work on `CCN1CNS(=O)(=O)c2sc(Cl)cc21` yielded a melting point of 119 to 120 °C. With `CC(C)n1nc(-c2sc(NC(=O)C3CC3)nc2-c2ccc(F)cc2)ccc1=O` the melting point was 250 to 252 °C. For `CN(C)c1ccc(CC(=O)N2CCC(c3[nH]nc4c3C(=O)c3c(NC(=O)NN5CCOCC5)cccc3-4)CC2)cc1`, the melting point was 107 to 109 °C. In the case of `Cc1nc2cnccc2n1-c1ccccc1`, the melting point was 134 to 136 °C. In the case of `O=C(O)C(=O)c1ccc(OCCOc2ccc3ccccc3c2)s1`, the melting point was 152 to 154 °C. In the case of `CSc1nc(O)nn1C`, the melting point was 128 to 130 °C. Compound `Nc1nc(CCc2ccccc2)cc(C2CCN(C(=O)c3ccccc3)CC2)n1` has a melting point of 104 to 106 °C. `O=C(CC1CCN(CC2CC2)CC1)c1ccc(O)cc1` showed a melting point of 209 to 211 °C. `Cc1cc2c(cc1C)C(=O)C(CC(=O)O)CC2` (stereo unspecified) showed a melting point of 193 to 194 °C. `CCCCCCCCCCCCCCCC(=O)OCCCN(C)C` gave a melting point of 49 to 50 °C. Work on `COc1cc(C)cc(OC)c1C1=NC(NC(=O)C(N)Cc2ccccc2)C(=O)N(C)c2ccccc21` (stereo unspecified) yielded a melting point of 165 °C. `O=C(Nc1c(C(O)(C(F)(F)F)C(F)(F)F)ccc2ccccc12)c1cccnc1` gave a melting point of 214 to 215 °C. With `CCOc1cc(-c2cc(C(F)(F)F)n3ncc(-c4ccncc4)c3n2)ccc1C(F)(F)F` the melting point was 251 °C. For `CCn1cccc1C(N)=S`, the melting point was 71.5 to 74.5 °C. With `COc1cc(N)c(Cl)cc1C(=O)NCC1CCN(CCCCCC(=O)c2ccc(F)cc2F)CC1` the melting point was 115 to 117 °C. Compound `O=C(O)c1csnc1-c1ccc(C(F)(F)F)cc1` has a melting point of 195 to 196 °C. For `C=CC(CC(O)C(CC(C)C)NC(=O)C(Cc1c[nH]cn1)NC(=O)C(Cc1ccccc1)NC(=O)OC(C)(C)C)C(C)C` (stereo unspecified), the melting point was 82 °C. Work on `CCOc1cc(OCCCc2cn(-c3ccc(C(F)(F)F)cn3)nc2C)ccc1CCC(=O)O` yielded a melting point of 129 to 130 °C. `COC(=O)c1cc(C(=O)NCC(=O)O)c2cc(Cc3ccc(F)cc3)cnc2c1O` showed a melting point of 246 to 247 °C. In the case of `CC(C)C(C#N)c1ccc([N+](=O)[O-])cc1` (stereo unspecified), the melting point was 71 to 72 °C. In the case of `Cn1cc(-c2cc3nccnc3[nH]2)cn1`, the melting point was 232 to 234 °C. In the case of `N#CNC(=Nc1cccnc1)NC1CCN(Cc2ccccc2)CC1`, the melting point was 173 to 174 °C. `CN1CCCCC1COC(=O)c1cccc(NC(=O)C(CS)Cc2ccccc2)c1` (stereo unspecified) showed a melting point of 68 to 69 °C. Compound `N#Cc1c2cccccc-2n(CC(=O)O)c1=O` has a melting point of 294 to 295 °C.
